From patent US8563779B2, “(4-trifluoromethyl-3-thiobenzoyl)cyclohexanediones and use thereof as herbicides” (Bayer CropScience AG, priority 2010, dated 2013)

Key:
[1] = test system: ALOMY; assay: Pre-emergence herbicidal action against weed plants; assay type: in vivo, Alopecurus myosuroides; conditions: dose 320 g a.c./ha, scored after 3 to 4 weeks under glass
Text: (§1) Water-dispersible granules are also obtained by homogenizing and precomminuting, in a colloid mill, • 25 parts by weight of a compound of the formula (I), • 5 parts by weight of sodium 2,2′-dinaphthylmethane-6,6′-disulfonate, • 2 parts by weight of sodium oleoylmethyltaurinate, • 1 part by weight of polyvinyl alcohol, • 17 parts by weight of calcium carbonate and • 50 parts by weight of water, subsequently grinding the mixture in a bead mill and atomizing and drying the resulting suspension in a spray tower by means of a single-fluid nozzle. C. BIOLOGICAL EXAMPLES 1. Pre-emergence Herbicidal Action Against Weed Plants
(§2) Seeds or rhizome sections of mono- and dicotyledonous weed plants are set out in pots of 9 to 13 cm in diameter, in sandy loam soil, and are covered with soil. The herbicides, formulated as emulsifiable concentrates or dusts, are applied to the surface of the covering earth in the form of aqueous dispersions or suspensions or emulsions, at a water application rate of 300 to 800 l/ha (converted). The pots are then maintained under glass under optimum conditions for the further cultivation of the plants. After 3 to 4 weeks under optimum growth conditions under glass, the trial plants are scored for the effect of the compounds according to the invention in comparison to compounds disclosed in the prior art.

[2] = test system: PHBPU; assay: as above; assay type: in vivo, Pharbitis purpureum; conditions: dose 320 g a.c./ha, scored after 3 to 4 weeks under glass
Text: as §1, §2

[3] = test system: VIOTR; assay: as above; assay type: in vivo, Viola tricolor; conditions: dose 320 g a.c./ha, scored after 3 to 4 weeks under glass
Text: as §1, §2

[4] = test system: LOLMU; assay: as above; assay type: in vivo, Lolium multiflorum; conditions: dose 320 g a.c./ha, scored after 3 to 4 weeks under glass
Text: as §1, §2

[5] = test system: MATIN; assay: Post-emergence herbicidal action against weed plants; assay type: in vivo, Matricaria inodora; conditions: dose 50 g a.c./ha, scored after 3 to 4 weeks under glass
Procedure: (§3) [table] 2. Post-emergence Herbicidal Action Against Weed Plants Seeds of monocotyledonous and dicotyledonous weed plants are set out in cardboard pots in sandy loam soil, covered with soil, and cultivated under glass under good growth conditions. Two to three weeks after sowing, the trial plants are treated at the three-leaf stage. The compounds according to the invention, formulated as wettable powders or as emulsifiable concentrates, are sprayed onto the surface of the green parts of the plants, at a water application rate of 600 to 800 l/ha (converted). After the trial plants have stood for 3 to 4 weeks under optimum growth conditions under glass, the action of the compounds according to the invention is scored in comparison to compounds disclosed in the prior art.

[6] = test system: PAPRH; assay: as above; assay type: in vivo, Papaver rhoeas; conditions: dose 50 g a.c./ha, scored after 3 to 4 weeks under glass
Procedure: as §3

[7] = test system: ALOMY; assay: as above; assay type: in vivo, Alopecurus myosuroides; conditions: dose 80 g a.c./ha, scored after 3 to 4 weeks under glass
Procedure: as §3

[8] = test system: PHBPU; assay: as above; assay type: in vivo, Pharbitis purpureum; conditions: scored after 3 to 4 weeks under glass
Procedure: as §3

[9] = test system: ABUTH; assay: as above; assay type: in vivo, Abutilon theophrasti; conditions: dose 80 g a.c./ha, scored after 3 to 4 weeks under glass
Procedure: as §3

[10] = test system: AMARE; assay: as above; assay type: in vivo; conditions: dose 80 g a.c./ha, scored after 3 to 4 weeks under glass
Procedure: as §3, with “2.” for “[table] 2.”

[11] = test system: LOLMU; assay: as above; assay type: in vivo, Lolium multiflorum; conditions: dose 80 g a.c./ha, scored after 3 to 4 weeks under glass
Procedure: as §3

[12] = test system: CYPES; assay: Pre-emergence herbicidal action against weed plants; assay type: in vivo, Cyperus serotinus; conditions: dose 320 g a.c./ha, scored after 3 to 4 weeks under glass
Text: as §1, §2

[13] = test system: POLCO; assay: as above; assay type: in vivo, Polygonum convolvulus; conditions: dose 320 g a.c./ha, scored after 3 to 4 weeks under glass
Text: as §1, §2

[14] = test system: AMARE; assay: as above; assay type: in vivo; conditions: dose 320 g a.c./ha, scored after 3 to 4 weeks under glass
Text: as §1, §2

[15] = test system: EPHHL; assay: Post-emergence herbicidal action against weed plants; assay type: in vivo, Euphorbia heterophylla; conditions: dose 12.5 g a.c./ha, scored after 3 to 4 weeks under glass
Procedure: as §3

## Cc1c(C(=O)C2C(=O)C3CCC(C3)C2=O)ccc(C(F)(F)F)c1[S+](C)[O-] (stereo not shown) [inventive compound No. 1-9]
[1]
  Herbicidal action against ALOMY: 100%
[2]
  Herbicidal action against PHBPU: 80%
[3]
  Herbicidal action against VIOTR: 100%
[4]
  Herbicidal action against LOLMU: 90%
[5]
  Herbicidal action against MATIN: 95%
[6]
  Herbicidal action against PAPRH: 95%
[7]
  Herbicidal action against ALOMY: 80%
[8]; dose 80 g a.c./ha
  Herbicidal action against PHBPU: 90%
[9]
  Herbicidal action against ABUTH: 100%
[10]
  Herbicidal action against AMARE: 90%
[11]
  Herbicidal action against LOLMU: 80%

## Cc1c(C(=O)C2C(=O)C3CCC(C3)C2=O)ccc(C(F)(F)F)c1S(C)(=O)=O (stereo not shown) [inventive compound No. 1-17]
[1]
  Herbicidal action against ALOMY: 90%
[12]
  Herbicidal action against CYPES: 90%
[13]
  Herbicidal action against POLCO: 100%
[14]
  Herbicidal action against AMARE: 100%
[8]; dose 12.5 g a.c./ha
  Herbicidal action against PHBPU: 85%
[15]
  Herbicidal action against EPHHL: 85%

## CCn1ncc(C(=O)c2ccc(C(F)(F)F)c(S(C)(=O)=O)c2C)c1O
[1]
  Herbicidal action against ALOMY: 50%
[12]
  Herbicidal action against CYPES: 60%
[13]
  Herbicidal action against POLCO: 60%

## Cc1nn(C)c(O)c1C(=O)c1ccc(C(F)(F)F)c([S+](C)[O-])c1C (stereo not shown)
[1]
  Herbicidal action against ALOMY: 60%
[3]
  Herbicidal action against VIOTR: 40%
[4]
  Herbicidal action against LOLMU: 60%
[9]
  Herbicidal action against ABUTH: 80%
[10]
  Herbicidal action against AMARE: 50%
[11]
  Herbicidal action against LOLMU: 30%

## Cc1nn(C)c(O)c1C(=O)c1ccc(C(F)(F)F)c(S(C)(=O)=O)c1C
[1]
  Herbicidal action against ALOMY: 50%
[12]
  Herbicidal action against CYPES: 50%
[14]
  Herbicidal action against AMARE: 90%

## Cc1c(C(=O)c2cnn(C)c2O)ccc(C(F)(F)F)c1S(C)(=O)=O
[8]; dose 12.5 g a.c./ha
  Herbicidal action against PHBPU: 50%
[15]
  Herbicidal action against EPHHL: 45%

## CCn1ncc(C(=O)c2ccc(C(F)(F)F)c([S+](C)[O-])c2C)c1O (stereo not shown)
[1]
  Herbicidal action against ALOMY: 70%
[2]
  Herbicidal action against PHBPU: 0%
[7]
  Herbicidal action against ALOMY: 60%
[8]; dose 80 g a.c./ha
  Herbicidal action against PHBPU: 80%

## Cc1c(C(=O)c2cnn(C)c2O)ccc(C(F)(F)F)c1[S+](C)[O-] (stereo not shown)
[1]
  Herbicidal action against ALOMY: 70%
[2]
  Herbicidal action against PHBPU: 50%
[3]
  Herbicidal action against VIOTR: 90%
[5]
  Herbicidal action against MATIN: 74%
[6]
  Herbicidal action against PAPRH: 55%
